“Also recorded” adds a separate entry of the source.
Columns and labels:
Human PBMCs = test: IL-1β ELISA on stimulated human PBMCs; format: cell-based; settings: with or without LPS 100 pg/ml priming; 24 hours
Method: Supernatants were collected after 24 hours and IL-1β was detected by ELISA. Human PBMCs were stimulated for 24 hours with polydA:dT (5 μg/ml, 2 μg/ml or 1 μg/ml) or alum (50 μg/ml) alone or with LPS (100 pg/ml) (C & D). Supernatants were collected and IL-1β was detected by ELISA. Bovine PBMCs were cultured with polydA:dT (1 μg/ml) with or without LPS (100 pg/ml) for 16 hours (E). Cell lysates were harvested and pro-IL-1β was detected by western blot. PBMCs were stimulated with media or polydA:dT (1 μg/ml) for 6 hours. Cells were lysed and RNA was harvested and used for analysis by RT-PCR (F). Results are mean+/− SEM for 6 calves tested individually in triplicate. For human analysis, results are mean+/− SEM for 6 humans tested individually in triplicate The PPIA gene was used for normalization of gene expression.

[1] = system: adult PBMCs or neonatal CBMCs; test: HEK-Blue IFNα/β SEAP assay on supernatants of stimulated mononuclear cells; format: cell-based, human
Method: Isolation of mononuclear cells and monocytes—Primary PBMCs or CBMCs were isolated from healthy human blood or cord blood. Monocytes were isolated by negative selection using Monocyte Isolation Kit II (Miltenyi). […] Cells were cultured at 37° C., 5% CO2, 95% air in RPMI-1640, with stable 2.5 mM L-glutamine and 0.5 mM sodium pyruvate with 10% FBS (all from Sigma-Aldrich).
(§1) Poly(I:C) (5 μg/ml) (Invivogen), Poly(dA:dT) (5 μg/ml) (Sigma-Aldrich), 2′3′ cGAMP (10 μg/ml), 5′ triphosphate double stranded RNA (5′ ppp dsRNA) (2.5 μg/ml) and HSV-60 (2 μg/ml) (all from Invivogen) were transfected into PBMCs or CBMCs using TransIT-X2 (Mirus).
(§2) Measurement of cytokines—HEK Blue TNFα/IFNα/β Assays were performed as per the manufacturer's (Invivogen) instructions using Quanti-Blue Detection Reagent. SEAP levels were determined using a spectrophotometer plate reader at 630 nm. IFNα (3425-1H-6, Mabtech) and IP-10 (DY266, R&D Systems) were detected by sandwich ELISA. IFNα ELISA used pan specific IFNα antibodies, which allows detection of IFNα subtypes 1/13, 2, 4, 5, 6, 7, 8, 10, 14, 16 and 17. BioLegend LEGENDplex™ Human Inflammation Panel (13-plex) was carried out as per manufacturer's (Biolegend) instructions to determine levels of IFNγ, IL-10, IL-12p70 and IL-23. A BD LSR Fortessa cell analyser was used to acquire samples and BioLegend LEGENDplex™ software was used for analysis.

bovine PBMCs = test: Real-time PCR of gene expression in bovine PBMCs; format: cell-based, cattle; settings: for IFN-α gene expression / IFN-β gene expression: vs unstimulated cells; for ISG-15 expression: after 12 hours (text), 6 hours (FIG. 23 legend)
Method: RNA extraction was conducted using Trizol and an RNeasy Plus Mini Kit (Qiagen Ltd). Tissue culture plates of stimulated cells were spun and supernatants were extracted while the remaining adherent cells were lysed using Trizol. Chloroform (200 μl per 1 ml of Trizol) was then added to the cell lysates and mixed vigorously before being centrifuged at 12000 g for 15 minutes at 4° C. The resulting aqueous layer of RNA was transferred to another tube containing 1 volume of ethanol. The mixture was then added to an RNeasy column and processed according to the manufacturer's instructions (Qiagen Ltd). After rigorous purification, the RNA was isolated and quantified using NanoDrop ND-1000 UV-Vis Spectrophotometer (NanoDrop Technologies Inc.). Finally the samples were stored at −80° C.
RNA was converted to cDNA using a High-Capacity cDNA Reverse transcription Kit (Applied Biosystems). Components needed for reverse transcriptase included RNA, RT 5× buffer, RNase Out, random hexamers, dNTP's and reverse transcriptase. The process was conducted under the following conditions: 25° C. for 10 minutes, 42° C. for 60 minutes, 95° C. for 3 minutes and hold at 4° C. The resulting cDNA was stored at −20° C.
Using, SYBR Green intercalating dye (Applied Biosystems Ltd), qRT-PCR was performed using Applied Biosystems 7500 Fast Real-Time PCR System. Each well on the qRT-PCR plate was comprised of SYBR Green dye, nuclease free H2O, cDNA, forward and reverse primers. Two negative controls were included to ensure no contamination was present. The cycle parameters of the process were: 95° C. for 20 seconds, 40 cycles at 95° C. for 3 seconds, 60° C. for 30 seconds followed by the dissociation steps which were: 95° C. for 15 seconds, 60° C. for 60 seconds, 95° C. for 15 seconds and 60° C. for 15 seconds. The Ct (threshold cycle) values from both the target and reference gene were used to measure the concentration of the target gene in the PCR reaction.

PBMCs or CBMCs = test: HEK-Blue TNFα assay on supernatants; format: cell-based, human; settings: CBMCs compared with PBMCs; 4, 8 or 24 hours
Method: as §1, §2

[2] = polydA:dT 1 μg/ml, 6 hours, listed as PolydA:dT
[3] = polydA:dT 1 μg/ml, 6 hours, listed as poly(dA:dT)
[4] = polydA:dT 1 μg/ml, 6 hours, listed as polydA:dT

Which results are given for “poly(deoxyadenylic-thymidylic) acid [Poly(dA:dT)]”?
IL-1β secretion by human PBMCs (Human PBMCs): only cells primed with LPS 3 h prior to transfection with polydA:dT secreted processed IL-1β; also recorded: human PBMCS did not secrete processed IL-1β; innate immune response in neonatal and/or paediatric blood ([1]; compared with adult blood, summary statement): robust innate immune response in neonatal and/or paediatric blood; type I IFN (IFNα/β) production ([1]; neonatal CBMCs compared with adult PBMCs, stimulation 4, 8 or 24 h): no inhibition of type I IFN production in CBMCs when compared to PBMCs; IFI-16 expression (bovine PBMCs; polydA:dT 1 μg/ml transfected, 12 hours): enhanced in response to polydA:dT; also recorded: regulates IFI-16 expression; also recorded: IFI-16 expression is enhanced by polydA:dT; IL-18 expression (bovine PBMCs; polydA:dT 1 μg/ml, 6 hours): enhanced by polydA:dT; also recorded: increased in response to polydA:dT after 6 hours; also recorded: can drive enhanced IL-18 expression; also recorded: increased the expression of IL-18; also recorded: robust driver of IL-1β secretion and IL-18 expression in cattle; IFN-α gene expression (bovine PBMCs; [2]): increases type I IFN expression by bovine PBMCs; also recorded: enhanced IFN-α, IFN-β and ISG-15 expression by bovine PBMCs; IFN-β gene expression (bovine PBMCs; [2]): increases type I IFN expression by bovine PBMCs; also recorded: enhanced IFN-α, IFN-β and ISG-15 expression by bovine PBMCs; IFN-α gene expression (bovine PBMCs; [3]): enhanced type 1 interferon secretion; IFN-β gene expression (bovine PBMCs; [3]): enhanced type 1 interferon secretion; IFN-α gene expression (bovine PBMCs; [4]): enhanced after 6 hours in comparison to unstimulated cells; also recorded: increases IFN-α and IFN-β expression in bovine PBMCs; IFN-β gene expression (bovine PBMCs; [4]): enhanced after 6 hours in comparison to unstimulated cells; also recorded: increases IFN-α and IFN-β expression in bovine PBMCs; ISG-15 expression (bovine PBMCs; polydA:dT 1 μg/ml, listed as PolydA:dT): enhanced IFN-α, IFN-β and ISG-15 expression by bovine PBMCs; ISG-15 expression (bovine PBMCs; polydA:dT 1 μg/ml, listed as polydA:dT): increased in response polydA:dT after 12 hours; also recorded: ISG-15 expression is increased in bovine PBMCs; TNFα production (PBMCs or CBMCs): significantly more TNFα production from neonatal cells than from adult cells

Source: patent US12629415B2, “Vaccine adjuvants” (THE PROVOST, FELLOWS, FOUNDATION SCHOLARS, AND THE OTHER …, priority 2018, dated 2026)
